Test results reported in USRE32300E, “Basic amino or ammonium antimicrobial agent-polyethylene glycol ester surfactant-betaine and/or amine oxide surfactant compositions and method of use thereof” (Sterling Drug Inc., priority 1985, dated 1986).

Test system: Staphylococcus aureus ATCC 6538
Test: serial dilution test against Staphylococcus aureus ATCC 6538 (compatibility of antimicrobial agents with prototype vehicle)
Format: cell-based
Conditions: Id expressed as free base, IVa-IVc as cation (A=Br)
Method: Compatability of the antimicrobial agents of Formula Id, Formula IIa, Formula IVa (A=Br), Formula IVb (A=Br) and Formula IVc (A=Br) with a prototype vehicle of the invention was tested by a serial dilution test against Staphylococcus aureus ATCC 6538. Volumes of two milliliters were used. Dilutions were in tryptosephosphate broth. Incubation was for 16-18 hours at 37° C. Growth was verified with 2,3,5-triphenyltetrazoliumchloride. The inoculum was 1.8×10^5 viable cells per tube. There follows the formula of the prototype vehicle.

Measured: Minimum Inhibitory Concentration (MIC)

CCCCCCCCNc1cc[n+](CCCCCCCCCC[n+]2ccc(NCCCCCCCC)cc2)cc1 [Formula IVb]
0.5 µg/mL: added vehicle 0 μg/ml | added vehicle 15.6 μg/ml | added vehicle 31.2 μg/ml | added vehicle 62.5 μg/ml | added vehicle 125.0 μg/ml

CCCCCCCNc1cc[n+](CCCCCCCCCCCC[n+]2ccc(NCCCCCCC)cc2)cc1 [Formula IVa]
0.10 µg/mL: added vehicle 125.0 μg/ml | added vehicle 250.0 μg/ml | added vehicle 500.0 μg/ml | added vehicle 2000.0 μg/ml | added vehicle 8000.0 μg/ml
